# Values quoted from earlier work in US20040126339A1, “Sunscreen composition and methods for manufacturing and using a sunscreen composition” (priority 2002, published 2004).
# Settings: in vivo
substance,measurement,value
Poly(vinylpyrrolidone/1-eicosene) [PVPE],dermal toxicity,no demonstrable dermal toxicity
Poly(vinylpyrrolidone/1-hexadecene) [PVPH],dermal toxicity,no demonstrable dermal toxicity
